Values of other authors, collected in patent US20110195912A1, “Oligomer-Protease Inhibitor Conjugates” (Nektar Therapeutics, priority 2008, published 2011).
Where two headings read alike, the source gives them in different places.

Tests used:
HCV genotype 1 [1] = conditions: 100-400 mg twice daily; patients with HCV genotype 1 that had failed pegIFN-α 2a therapy
HCV genotype 1 [2] = conditions: 200 or 400 mg thrice daily, 14 days; non-responder patients with HCV genotype 1
[3] = monkey; twice daily oral dosing for seven days
HCV = conditions: monotherapy, twice daily doses for 14 days
[4] = rat; twice daily oral dosing for seven days

| liver trough concentrations following the last dose [3] | liver trough concentrations following the last dose [4] | SMILES | antiviral activity as a monotherapy (HCV genotype 1 [1]) | efficacy in combination with pegIFN-α2a (HCV genotype 1 [2]) | viral RNA levels (HCV) |
| --- | --- | --- | --- | --- | --- |
|  |  | CC(C)(C)NC(=O)N[C@H](C(=O)N1CC2[C@@H]([C@H]1C(=O)NC(CC1CCC1)C(=O)C(N)=O)C2(C)C)C(C)(C)C (some centres unmarked) [Boceprevir] | demonstrated antiviral activity | efficacious |  |
| in excess of in vitro EC90 values | in excess of in vitro EC90 values | CC(C)(C)OC(=O)N[C@H]1CCCCC/C=C\[C@@H]2C[C@@]2(C(=O)NS(=O)(=O)C2CC2)NC(=O)[C@@H]2C[C@@H](OC(=O)N3Cc4cccc(F)c4C3)CN2C1=O [ITMN-191] |  |  | rapid reduction in viral RNA levels |
